According to patent publication US12370183B2, “Compositions and methods for treating malaria” (Rutgers, The State University of New Jersey, priority 2020, dated 2025):

Tests used:
HepG2-A16-CD81EGFP cells = test: HepG2 cytotoxicity bioluminescence assay (CellTiter-Glo); format: cell-based, human; conditions: for concentration below which no toxicity was seen: HepG2-A16-CD81EGFP, 48 h, CellTiter-Glo
Method: Compounds 66 and 177 were tested for viability of liver schizonts of the murine Plasmodium berghei species transformed with Luciferase by using the following assay adapted and modified from S. Swann et al. (2016) High-Throughput Luciferase-Based Assay for the Discovery of Therapeutics That Prevent Malaria. ACS Infectious Diseases 2: 4. 281-293 (2016), but with the removal of the infection methods. The CellTiter-Glo® ° (Promega Corp., Madison WI) is a method to determine the number of viable cells in culture based on quantitation of the ATP present, which signals the presence of metabolically active cells.
HepG2-A16-CD81EGFP cells were stably transformed to express a GFP-CD81 fusion protein (S. Yalaoui et al., Hepatocyte permissiveness to Plasmodium infection is conveyed by a short and structurally conserved region of the CD81 large extracellular domain. PLoS Pathog. 4, e1000010 (2008); O. Silvie et al, Hepatocyte CD81 is required for Plasmodium falciparum and Plasmodium yoelii sporozoite infectivity. Nat. Med. 9, 93 (2003)). The transformed HepG2-A16-CD81EGFP cells were cultured at 37° C. in 5% CO2 in DMEM (Invitrogen, Carlsbad, USA) supplemented with 10% FCS, 0.29 mg/ml glutamine, 100 units penicillin and 100 μg/ml streptomycin.
[…] HepG2-A16-CD81EGFP cells in 5 μl of medium (2×10^5 cells/ml, 5% FBS, 5× Pen/Strep/Glu) were seeded in 1536-well plates (Greiner BioOne white solid bottom custom GNF mold) 20-26 hours prior to the actual infection. 24 hours prior to infection, 50 nl of compound in DMSO (0.5% final DMSO concentration per well) was transferred with acoustic transfer machine (ATS) into the assay plates (10 μM-50 μM final concentration). Puromycin (25 μM) and 0.5% DMSO were used as positive and negative controls, respectively.
5 μl of the HepG2 screening media were dispensed into each well of the 1536 plate format using the BioTek MultiFlo FX Multi-Mode Cell Dispenser and a 5 μl BioTek Liquid Handling MicroFlo cassette. This step was to maintain equal concentrations of compounds with the Pb-Luc infected plates that were performed in parallel with this assay (P. berghei-Luciferase Liver Stage Bioluminescence Assay). After incubation at 37° C. for 48 hours, the cell viability was quantified by bioluminescence measurement. […] Puromycin and naive wells were used as controls on each plate. The compounds were screened in a 12 point serial dilution to determine their IC50 values.
Media was removed by spinning the inverted plates at 150 RCF for 1 minute. CellTiter-Glo® reagent (Promega Corp., Madison WI) was prepared following manufacturer instructions and diluted with DI H2O 1:1 (final solution is 50% CellTiterGlo® reagent in DI H2O). […] Immediately after addition of the CellTiter-Glo® reagent, the plates were read by the Envision Multilabel Reader (PerkinElmer).

Pf Dd2 = test: P. falciparum (Dd2 strain) asexual blood stage assay, Pf Dd2; format: cell-based; conditions: Plasmodium falciparum, DD2, 72 h, read-out: Pf Dd2 IC50 (uM)
Method: (§1) Assays using human blood cells infected with Plasmodium falciparum: (Pf) parasites, both wild-type strains as well as mutant drug-resistant strains, were performed as described below. Wild-type strains used were aatB Pf (Dd2 strain) and Pf (Dd2 strain). Mutant strains used were proguanil resistant attb Pf (Dd2 strain), dihydroorotate dehydrogenase (DHODH) deficient aatB Pf (Dd2 strain), and DHODH deficient and proguanil resistant Pf (Dd2 strain).
(§2) 2008 Jul. 1; 105(26):9059-64.
(§3) Parasitemia was estimated by blood smear Giemsa stain and visual inspection under the microscopic.
The screening plate was prepared by centrifuging for parasite culture for 5 min at 800×g at RT (low brake) and removing supernatant. A parasite suspension was prepared with 0.3% parasitemia and 4% hematocrit in screening medium (SM). The suspension was gassed with a gas mixture of 1% oxygen, 3% carbon dioxide, 96% nitrogen and stored at 37° C. for until ready to use. […]
(§4) 2 μl of detection reagent mixture (10×SYBR Green I (Invitrogen) in Lysis buffer (20 mM Tris/HCl, 5 mM EDTA, 0.16% Saponin wt/vol, 1.6% Triton X vol/vol) was added. Assay plates were read from the bottom by using the 2104 EnVision® Multilabel Reader (PerkinElmer) (485 nm excitation, 530 nm emission). The results are presented in Table 5 below.

[1] = system: Proguanil resistant attB Pf Dd2; test: P. falciparum (Dd2 strain) asexual blood stage assay, proguanil resistant attB; format: cell-based, Plasmodium falciparum; conditions: for IC50: Plasmodium falciparum, DD2, 72 h, read-out: Proguanil resistant attB Pf Dd2 IC50 (uM)
Method: as §1, §2, §3
(§5) The screening plate was prepared by centrifuging for parasite culture for 5 min at 800×g at RT (low brake) and removing supernatant. A parasite suspension was prepared with 0.3% parasitemia and 4% hematocrit in screening medium (SM). The suspension was gassed with a gas mixture of 1% oxygen, 3% carbon dioxide, 96% nitrogen and stored at 37° C. for until ready to use. 50 nl of 1 mM compound in DMSO was prespotted into 1536 well plates (final drug conc. of 12.5 μM, final DMSO conc. of 0.625%) with the acoustic dispenser ATS. Controls were Artemisinin, Chloroquine, and DMSO. 8 μl of SM was dispensed into 1,536-well, black, clear-bottom plates (Greiner) using the MultiFlo™ Microplate dispenser (BioTek) (final parasitemia of 0.3% and 2.5% hematocrit in SM). The plates were incubated at 37° C. for 72 h with water-soaked tissue in a closed ziploc bag gassed with 1% oxygen, 3% carbon dioxide, 96% nitrogen.
as §4

[2] = system: DHODH deficient Pf Dd2 mutant; test: P. falciparum (Dd2 strain) asexual blood stage assay, DHODH deficient mutant; format: cell-based, Plasmodium falciparum; conditions: for IC50: Plasmodium falciparum, DD2, 72 h, read-out: DHODH deficient Pf Dd2 mutant IC50 (uM)
Method: as §1, §2, §3, §5, §4

| SMILES | cell-based toxicity, in words (HepG2-A16-CD81EGFP cells) | concentration below which no toxicity was seen (HepG2-A16-CD81EGFP cells) [µM] | IC50 (Pf Dd2) [µM] | IC50 [1] [µM] | potency against a proguanil resistant attB mutant strain ([1]; in words) | IC50 [2] [µM] | potency against a dihydroorotate dehydrogenase (DHODH) deficient mutant ([2]; in words) |
| --- | --- | --- | --- | --- | --- | --- | --- |
| O=C1c2c3c(nc4ccccc24)CCN(Cc2ccccc2)C3N1c1ccc(F)c(F)c1 (stereo not drawn) [Compound 177, 3-Benzyl-2-(3,4-difluorophenyl)-2a,3,4,5-tetrahydrobenzo[b]pyrrolo[4,3,2-de][1,6]naphthyridin-1(2H)-one] | acceptable levels of cell-based toxicity | ≥ 12.5 | 0.0063 | 0.0113 | undiminished potency | 0.006 | undiminished potency |
| O=C(Nc1ccc(F)c(F)c1)c1c2c(nc3ccccc13)CCN(Cc1ccccc1)C2 [Compound 66, 2-Benzyl-N-(3,4-difluorophenyl)-1,2,3,4-tetrahydrobenzo[b][1,6]naphthyridine-10-carboxamide] | acceptable levels of cell-based toxicity | ≥ 50 | 0.302 | 0.0699 | – | 0.0301 | – |
